From US20030181335A1, “Novel 3- (4-cyanophenyl) uracils” (priority 1995, published 2003)

Experiments:
Experiment in all cases: Greenhouse herbicidal activity, post-emergence
Type in all cases: in vivo
Conditions in all cases: application rate 0.0156 or 0.0078 kg of a.i./ha
[1] = test system: Solanum nigrum
Text: (§1) The culture containers used were plastic flower pots containing loamy sand with approximately 3.0% of humus as the substrate. The seeds of the test plants were sown separately for each species.
(§2) For the post-emergence treatment, the test plants were first grown to a plant height of 3 to 15 cm, depending on the growth form, and only then treated with the active ingredients which were suspended or emulsified in water. The test plants were either sown directly and grown in the same containers, or grown separately as seedlings and transplanted to the test containers a few days prior to treatment. The application rate for the post-emergence treatment was 0.0156 or 0.0078 kg of a.i. (active ingredient) per ha.
(§3) The plants were kept at from 10-25° C. or 20-35° C., depending on the species. The test period extended to 2-4 weeks. During this time, the plants were tended and their response to individual treatments was evaluated.
(§4) Evaluation was carried out using a scale from 0 to 100. 100 means no emergence of the plants, or complete destruction of at least the aerial parts, and 0 means no damage or normal course of growth.
(§5) The plants used for the greenhouse experiments were the following species: […]

[2] = test system: Galium aparine
Text: as §1, §2, §3, §4, §5

[3] = test system: Abutilon theophrasti
Text: as §1, §2, §3, §4, §5

[4] = test system: Ipomoea subspecies
Text: as §1, §2, §3, §4, §5

COc1cc(-n2c(=O)cc(C(F)(F)F)n(N)c2=O)ccc1C#N [Compound No. I.02, 1-Amino-3-[4-cyano-3-methoxyphenyl]-6-trifluoromethyl-1,2,3,4-tetrahydropyrimidine-2,4-dione]
very effective: herbicidal action against Solanum nigrum (black nightshade) [1] | herbicidal action against Galium aparine (catchweed bedstraw) [2] | herbicidal action against Abutilon theophrasti (velvet leaf) [3] | herbicidal action against Ipomoea subspecies (morningglory) [4]
